Broadly, the IC50 is the concentration that inhibits the measured activity by half.

In one series the test system is xanthine oxidase (XO). As to the kind of experiment: In vitro xanthine oxidase (XO) inhibiting action. Format: biochemical. As to conditions: for Inhibition Rate (%) at Concentration of 100 μM: Table 2, XO inhibition at 100 μM; for IC50: PBS pH 7.5, xanthine substrate, absorbance at 295 nm after 30 minutes, mean±standard error; for action of inhibiting a xanthine oxidase (in words): summary of Tables 1 to 3. How it is done:
The in vitro xanthine oxidase (XO) inhibiting action was studied on 210 kinds of cyclic dipeptides, linear dipeptides Tyr-Gly and Gly-Tyr, and an amino acid Tyr. […] Thereafter, 20 μL of a 250 μM xanthine solution previously dissolved in the PBS was added thereto, and the absorbance after 30 minutes was measured using a spectrophotometer (Synegy HT, manufactured by Bio Tek). The XO inhibition rate (%) at each concentration was calculated by the following calculation formula, to obtain activities of inhibiting XO (IC50 values).

The next series can be described thus: Solubility in water. The class given is physicochemical. Conditions: Table 5; for Solubility in Water: distilled water, 25° C., ultrasonication 30 minutes, visual examination, tested at 5, 1, 0.1, 0.01 mM, insoluble = not dissolved at 0.01 mM. How it is done:
Concretely, each compound was added to distilled water (manufactured by Otsuka Pharmaceutical Co., Ltd.) at an ambient temperature (25° C.) so as to have a final concentration of 5 mM, and the mixture was stirred under ultrasonication for 30 minutes to dissolve. […] However, none of the compounds dissolved, so that distilled water was further added thereto so as to have a final concentration of 0.01 mM, and the mixture was stirred under ultrasonication for 30 minutes, but still no compounds dissolved.

Where [1] appears, read: Table 3, read-out: IC50 (Activity of Inhibiting XO of Phe-Containing Cyclic Dipeptides).
Setting [2] is: Table 1, read-out: IC50 (Activity of Inhibiting XO of Tyr-Containing Cyclic Dipeptides).

≈ marks a conversion by molar mass, not a printed value. Read-outs that look alike come from different tables or passages of the source.

Consider “cyclotryptophanyltyrosine [Cyclo(Trp-Tyr)]”, for which the “Inhibition Rate (%) at Concentration of 100 μM” value (“Inhibition Rate (%)” for short) with xanthine oxidase (XO) was 19.1%. Further, the “Solubility in Water” value in “Solubility in water” is given as “insoluble”. With `CC(C)CC1NC(=O)C(Cc2ccccc2)NC1=O` (stereo not shown) [Cyclo(Leu-Phe), reference compound], the IC50 at xanthine oxidase (XO) (setting [1]) is more than 100 µM. With `N=C(N)NCCCC1NC(=O)C(Cc2ccc(O)cc2)NC1=O` (stereo not shown) [Cyclo(Arg-Tyr), cycloarginyltyrosine], at xanthine oxidase (XO) (setting [2]), the IC50 amounted to 211 µM. For the same compound, in the series “Solubility in water”, the “solubility in water (in words)” value is on record as “high solubility in water” and the “Solubility in Water” value was 5 mM (≈ 1600 µg/mL).

For the compound `O=C1N[C@@H](Cc2ccc(O)cc2)C(=O)N2CCC[C@@H]12` [Cyclo(Pro-Tyr), cycloprolyltyrosine], in the series on xanthine oxidase (XO), the “Inhibition Rate (%)” value was determined as 2.3%. For the same compound, in the series “Solubility in water”, the “solubility in water (in words)” value is “high solubility in water” and the “Solubility in Water” value was found to be 1 mM (≈ 260 µg/mL). For `O=C1CNC(=O)C(Cc2ccccc2)N1` (stereo not shown) [Cyclo(Phe-Gly), reference compound], on xanthine oxidase (XO) (setting [1]), the IC50 is more than 100 µM.

In the case of `O=C1NC(Cc2c[nH]c3ccccc23)C(=O)NC1Cc1ccccc1` (stereo not shown) [Cyclo(Trp-Phe), reference compound], the IC50 at xanthine oxidase (XO) (setting [1]) is more than 100 µM.

On to `O=C(O)CC[C@@H]1NC(=O)[C@H](Cc2ccc(O)cc2)NC1=O` [Cyclo(Glu-Tyr), cycloglutamyltyrosine], for which the “Inhibition Rate (%)” value with xanthine oxidase (XO) is 0.4%. In addition, in the series “Solubility in water”, the “solubility in water (in words)” value is given as “high solubility in water” and the “Solubility in Water” value worked out at 5 mM (≈ 1460 µg/mL). With `CC1NC(=O)C(Cc2ccc(O)cc2)NC1=O` (stereo not shown) [Cyclo(Ala-Tyr), cycloalanyltyrosine], the “Inhibition Rate (%)” value in the series on xanthine oxidase (XO) stood at 8.3%. For the same compound, the “Solubility in Water” value in the series “Solubility in water” was “insoluble”. As to `O=C(O)CCC1NC(=O)C(Cc2ccccc2)NC1=O` (stereo not shown) [Cyclo(Glu-Phe), reference compound], the IC50 at xanthine oxidase (XO) (setting [1]) is more than 100 µM. As for `O=C1N[C@@H](Cc2c[nH]cn2)C(=O)N[C@H]1Cc1ccc(O)cc1` [Cyclo(His-Tyr), cyclohistidyltyrosine], the “Inhibition Rate (%)” value in the series on xanthine oxidase (XO) was 3.2%. Besides, in the series “Solubility in water”, the “solubility in water (in words)” value is “high solubility in water” and the “Solubility in Water” value is 1 mM (≈ 300 µg/mL). Turning to cycloleucyltyrosine [Cyclo(Leu-Tyr)], on xanthine oxidase (XO) (setting [2]), the IC50 is 23.8 ± 5.3 µM. For the same compound, in the series on xanthine oxidase (XO), the “action of inhibiting a xanthine oxidase (in words)” value is “high action of inhibiting a xanthine oxidase”. In addition, in “Solubility in water”, the “Solubility in Water” value is “insoluble”. Take `O=C1NC(Cc2ccccc2)C(=O)NC1Cc1ccccc1` (stereo not shown) [Cyclo(Phe-Phe), reference compound]: the IC50 at xanthine oxidase (XO) (setting [1]) was more than 100 µM.

As for `CSCCC1NC(=O)C(Cc2ccc(O)cc2)NC1=O` (stereo not shown) [Cyclo(Met-Tyr), cyclomethionyltyrosine], the IC50 at xanthine oxidase (XO) (setting [2]) was determined as 56.4 ± 2.9 µM. Also, in the series “Solubility in water”, the “solubility in water (in words)” value is listed as “high solubility in water” and the “Solubility in Water” value worked out at 5 mM (≈ 1470 µg/mL). Turning to `O=C1NC(Cc2ccccc2)C(=O)NC1CO` (stereo not shown) [Cyclo(Ser-Phe), reference compound], the IC50 on xanthine oxidase (XO) (setting [1]) is more than 300 µM. The same measure, in the same setting: with `N=C(N)NCCCC1NC(=O)C(Cc2ccccc2)NC1=O` (stereo not shown) [Cyclo(Arg-Phe), reference compound] the figure was more than 300 µM. Turning to `NCCCC[C@@H]1NC(=O)[C@H](Cc2ccc(O)cc2)NC1=O` [Cyclo(Lys-Tyr), cyclolysyltyrosine], the “Inhibition Rate (%)” value in the series with xanthine oxidase (XO) is 25.7%. In addition, in “Solubility in water”, the “solubility in water (in words)” value was “high solubility in water” and the “Solubility in Water” value turned out to be 5 mM (≈ 1460 µg/mL). Consider `NC(=O)C[C@@H]1NC(=O)[C@H](Cc2ccc(O)cc2)NC1=O` [Cyclo(Asn-Tyr), cycloasparaginyltyrosine], for which the IC50 at xanthine oxidase (XO) (setting [2]) was found to be 113 µM. Besides, in the series “Solubility in water”, the “solubility in water (in words)” value was “high solubility in water” and the “Solubility in Water” value was 1 mM (≈ 277 µg/mL).

Consider `CCC(C)C1NC(=O)C(Cc2ccc(O)cc2)NC1=O` (stereo not shown) [Cyclo(Ile-Tyr), cycloisoleucyltyrosine], for which, on xanthine oxidase (XO) (setting [2]), the IC50 was 86.7 ± 2.8 µM. Further, in “Solubility in water”, the “solubility in water (in words)” value is reported as “high solubility in water” and the “Solubility in Water” value was 1 mM (≈ 276 µg/mL).

As for `CC1NC(=O)C(Cc2ccccc2)NC1=O` (stereo not shown) [Cyclo(Ala-Phe), reference compound], the IC50 on xanthine oxidase (XO) (setting [1]) was more than 100 µM. Turning to `CCC(C)C1NC(=O)C(Cc2ccccc2)NC1=O` (stereo not shown) [Cyclo(Ile-Phe), reference compound], the IC50 on xanthine oxidase (XO) (setting [1]) is more than 100 µM.

Take `O=C1N[C@@H](Cc2ccc(O)cc2)C(=O)N[C@H]1Cc1ccccc1` [Cyclo(Phe-Tyr), cyclophenylalanyltyrosine]: the IC50 on xanthine oxidase (XO) (setting [2]) and at xanthine oxidase (XO) (setting [1]) was 22.2 ± 0.8 µM in each case. For the same compound, the “action of inhibiting a xanthine oxidase (in words)” value in the series with xanthine oxidase (XO) was “high action of inhibiting a xanthine oxidase”. In addition, the “Solubility in Water” value in the series “Solubility in water” is recorded as “insoluble”.

Consider `NC(=O)CCC1NC(=O)C(Cc2ccccc2)NC1=O` (stereo not shown) [Cyclo(Gln-Phe), reference compound], for which the half-inhibitory concentration (IC50) at xanthine oxidase (XO) (setting [1]) was more than 300 µM. Regarding `O=C1N[C@@H](Cc2ccc(O)cc2)C(=O)N[C@H]1Cc1ccc(O)cc1` [Cyclo(Tyr-Tyr), cyclotyrosyltyrosine], on xanthine oxidase (XO) (setting [2]), the IC50 came out at 29.5 ± 2.9 µM. Also, the “action of inhibiting a xanthine oxidase (in words)” value in the series with xanthine oxidase (XO) is “high action of inhibiting a xanthine oxidase”. Also, the “Solubility in Water” value in the series “Solubility in water” was “insoluble”. `C[C@@H](O)[C@@H]1NC(=O)[C@H](Cc2ccc(O)cc2)NC1=O` [Cyclo(Thr-Tyr), cyclothreonyltyrosine]: in the series with xanthine oxidase (XO), the “Inhibition Rate (%)” value was found to be 2.6%. In addition, in “Solubility in water”, the “solubility in water (in words)” value is reported as “high solubility in water” and the “Solubility in Water” value is given as 1 mM (≈ 264 µg/mL). For `NC(=O)CC1NC(=O)C(Cc2ccccc2)NC1=O` (stereo not shown) [Cyclo(Asn-Phe), reference compound], the IC50 on xanthine oxidase (XO) (setting [1]) is more than 300 µM. On the same count and under the same terms, in the case of `O=C1NC(Cc2cnc[nH]2)C(=O)NC1Cc1ccccc1` (stereo not shown) [Cyclo(His-Phe), reference compound] it was more than 100 µM. With `O=C(O)C[C@@H]1NC(=O)[C@H](Cc2ccc(O)cc2)NC1=O` [Cyclo(Asp-Tyr), cycloaspartyltyrosine], the IC50 at xanthine oxidase (XO) (setting [2]) was determined as 172 µM. Also, in the series “Solubility in water”, the “solubility in water (in words)” value is given as “high solubility in water” and the “Solubility in Water” value was determined as 5 mM (≈ 1390 µg/mL). For the compound `O=C(O)CC1NC(=O)C(Cc2ccccc2)NC1=O` (stereo not shown) [Cyclo(Asp-Phe), reference compound], the IC50 at xanthine oxidase (XO) (setting [1]) is more than 300 µM. On to `CC(C)C1NC(=O)C(Cc2ccc(O)cc2)NC1=O` (stereo not shown) [Cyclo(Val-Tyr), cyclovalyltyrosine], for which the IC50 on xanthine oxidase (XO) (setting [2]) amounted to 79.4 ± 16.1 µM. Moreover, the “Solubility in Water” value in the series “Solubility in water” is listed as “insoluble”. `NC(=O)CC[C@@H]1NC(=O)[C@H](Cc2ccc(O)cc2)NC1=O` [Cyclo(Gln-Tyr), cycloglutaminyltyrosine]: the “Inhibition Rate (%)” value in the series with xanthine oxidase (XO) stood at 42.6%. Moreover, in the series “Solubility in water”, the “solubility in water (in words)” value is given as “high solubility in water” and the “Solubility in Water” value worked out at 1 mM (≈ 291 µg/mL). Turning to `O=C1NC(Cc2ccccc2)C(=O)N2CCCC12` (stereo not shown) [Cyclo(Pro-Phe), reference compound], the IC50 on xanthine oxidase (XO) (setting [1]) was more than 100 µM. On the same count and under the same terms, in the case of `CSCCC1NC(=O)C(Cc2ccccc2)NC1=O` (stereo not shown) [Cyclo(Met-Phe), reference compound] it was more than 100 µM; in that of `NCCCCC1NC(=O)C(Cc2ccccc2)NC1=O` (stereo not shown) [Cyclo(Lys-Phe), reference compound], more than 300 µM. For the compound `O=C1NC(Cc2ccccc2)C(=O)NC1CS` (stereo not shown) [Cyclo(Phe-Cys), reference compound], the IC50 on xanthine oxidase (XO) (setting [1]) is 133 ± 25.2 µM. As for `O=C1NC(Cc2ccc(O)cc2)C(=O)NC1CO` (stereo not shown) [Cyclo(Ser-Tyr), cycloseryltyrosine], the IC50 at xanthine oxidase (XO) (setting [2]) worked out at 189 ± 52.5 µM. Moreover, the “Solubility in Water” value in “Solubility in water” is “insoluble”. Turning to `CC(O)C1NC(=O)C(Cc2ccccc2)NC1=O` (stereo not shown) [Cyclo(Thr-Phe), reference compound], at xanthine oxidase (XO) (setting [1]), the IC50 was more than 300 µM. Turning to `CC(C)C1NC(=O)C(Cc2ccccc2)NC1=O` (stereo not shown) [Cyclo(Val-Phe), reference compound], the IC50 on xanthine oxidase (XO) (setting [1]) was 60.5 ± 2.4 µM.

For the origin of these results see US20170129919A1, “CYCLIC DIPEPTIDE-CONTAINING COMPOSITION” (Suntory Holdings Limited, priority 2014, published 2017).
